Values joined by “and” are separate entries in the source; they are usually repeats but may differ in a detail not shown here. Identical values can stand only once. ± gives the uncertainty stated by the source.
Assay: xn = mol fraction of the nth substance listed

CC(=O)CCC(=O)O + O=C(O)[C@@H]1CCCN1
100 kPa, x1 = 0.667
Settings	viscosity [mPa·s]
303.15 K	955 ± 130
308.15 K	636.1 ± 81
313.15 K	432.5 ± 52
318.15 K	301 ± 34
323.15 K	219.6 ± 24

CCCCCCCCCCCCCC[P+](CCCCCC)(CCCCCC)CCCCCC.c1c[n-]nn1 + O=C=O
Settings	viscosity [mPa·s]
298.15 K, 100 kPa, x2 = 0.38	419 ± 17

CCCCN(CCO)CCCC + O=S=O
303.15 K, 100 kPa
Settings	viscosity [mPa·s]
x2 = 0.17	19.3
x2 = 0.33	198.3
x2 = 0.45	2527

CCC(=O)O + O=[N+]([O-])c1ccccc1
viscosity [mPa·s], 101 kPa
Settings	x1 = 0.1311	x1 = 0.2535	x1 = 0.3679	x1 = 0.4752	x1 = 0.5759	x1 = 0.6708	x1 = 0.7601	x1 = 0.8445	x1 = 0.9244
298.15 K	1.763 ± 0.013	1.711 ± 0.013	1.663 ± 0.013	1.612 ± 0.012	1.551 ± 0.012	1.478 ± 0.011	1.392 ± 0.011	1.291 ± 0.01	1.175 ± 0.0092
308.15 K	1.469 ± 0.011	1.452 ± 0.011	1.428 ± 0.011	1.394 ± 0.011	1.346 ± 0.01	1.285 ± 0.01	1.21 ± 0.0095	1.121 ± 0.0088	1.019 ± 0.0081
318.15 K	1.35 ± 0.01	1.42 ± 0.011	1.421 ± 0.011	1.376 ± 0.011	1.301 ± 0.01	1.207 ± 0.0095	1.106 ± 0.0087	1.002 ± 0.008	0.9012 ± 0.0072

Nc1cccc(Cl)c1 + O=[N+]([O-])c1ccccc1
viscosity [mPa·s], 100 kPa
Settings	x1 = 0.5896	x1 = 0.6785	x1 = 0.7825
303.15 K	–	–	3.915 ± 0.1
318.15 K	2.615 ± 0.1	2.755 ± 0.1	–

OC[C@@H](O)[C@@H](O)CO + OC[C@@H](O)[C@H](O)[C@@H](O)CO
101 kPa, x1 = 0.36
Settings	viscosity [mPa·s]
313 K	31330
318 K	18000
323 K	10110

[F-].[Na+] + [2H]O[2H]
viscosity [mPa·s], 101 kPa
Settings	298.15 K	308.15 K	318.15 K
x1 = 0.0054	1.159 ± 0.013	0.913 ± 0.01	0.747 ± 0.008
x1 = 0.0122	1.246 ± 0.014	0.98 ± 0.011	0.8 ± 0.009
x1 = 0.0163	1.326 ± 0.015	1.043 ± 0.012	0.857 ± 0.01

[K+].[O]=[Mn](=[O])(=[O])[O-] + [2H]O[2H]
viscosity [mPa·s], 101 kPa
Settings	x1 = 0.0021	x1 = 0.0034	x1 = 0.0052	x1 = 0.0062
298.15 K	1.101 ± 0.009	1.092 ± 0.009	1.079 ± 0.009	1.082 ± 0.009
308.15 K	0.873 ± 0.007	0.861 ± 0.007	0.853 ± 0.007	0.85 ± 0.007
318.15 K	0.717 ± 0.006	0.709 ± 0.006	0.703 ± 0.006	0.704 ± 0.006

CCCC[n+]1ccccc1.[Cl][Al-]([Cl])([Cl])[Cl] + [Al+3].[Cl-].[Cl-].[Cl-]
viscosity [mPa·s], 101 kPa
Settings	293.15 K	298.15 K	303.15 K	308.15 K	313.15 K	318.15 K	323.15 K
x2 = 0.46	29.8 ± 1.3	26.4 ± 1.1	22.8 ± 1	19.9 ± 0.9	17.6 ± 0.8	15.8 ± 0.7	13.8 ± 0.6
x2 = 0.57	29 ± 1.3	25.2 ± 1.1	22.1 ± 1	19.9 ± 0.9	17.6 ± 0.8	15.6 ± 0.7	14.2 ± 0.6

C1C[C@@H]2[C@H]3CC[C@H](C3)[C@@H]2C1 + c1ccc2c(c1)CCCC2
viscosity [mPa·s], 100 kPa
Settings	x1 = 0.1003	x1 = 0.1991	x1 = 0.3022	x1 = 0.407	x1 = 0.4996	x1 = 0.5992	x1 = 0.7019	x1 = 0.7987	x1 = 0.8983
293.15 K	2.201 ± 0.047	2.214 ± 0.047	2.254 ± 0.048	2.299 ± 0.05	2.355 ± 0.051	2.438 ± 0.053	2.543 ± 0.056	2.668 ± 0.06	2.807 ± 0.063
298.15 K	1.994 ± 0.042	2.008 ± 0.043	2.043 ± 0.044	2.088 ± 0.045	2.139 ± 0.047	2.214 ± 0.049	2.307 ± 0.051	2.416 ± 0.054	2.546 ± 0.058
303.15 K	1.816 ± 0.039	1.831 ± 0.039	1.864 ± 0.04	1.904 ± 0.041	1.952 ± 0.042	2.019 ± 0.044	2.106 ± 0.047	2.202 ± 0.049	2.319 ± 0.052
308.15 K	1.664 ± 0.035	1.678 ± 0.036	1.708 ± 0.037	1.746 ± 0.038	1.79 ± 0.039	1.851 ± 0.041	1.929 ± 0.043	2.018 ± 0.045	2.122 ± 0.048
313.15 K	1.531 ± 0.033	1.545 ± 0.033	1.574 ± 0.034	1.608 ± 0.035	1.648 ± 0.036	1.704 ± 0.037	1.775 ± 0.039	1.855 ± 0.041	1.95 ± 0.044
318.15 K	1.414 ± 0.03	1.428 ± 0.031	1.454 ± 0.031	1.486 ± 0.032	1.523 ± 0.033	1.574 ± 0.035	1.639 ± 0.036	1.712 ± 0.038	1.798 ± 0.041
323.15 K	1.311 ± 0.028	1.325 ± 0.028	1.349 ± 0.029	1.379 ± 0.03	1.413 ± 0.031	1.459 ± 0.032	1.519 ± 0.034	1.586 ± 0.035	1.663 ± 0.038

CCC(=O)O + c1ccccc1
101.33 kPa
Settings	viscosity
293.15 K, x1 = 0.2	0.66 ± 0.013 mPa·s and 0.66 ± 0.018 mPa·s
293.15 K, x1 = 0.4	0.7 ± 0.019 mPa·s
293.15 K, x1 = 0.5	0.734 ± 0.015 mPa·s and 0.734 ± 0.02 mPa·s
293.15 K, x1 = 0.8	0.889 ± 0.024 mPa·s
303.15 K, x1 = 0.2	0.575 ± 0.016 mPa·s
303.15 K, x1 = 0.4	0.61 ± 0.017 mPa·s
303.15 K, x1 = 0.5	0.639 ± 0.017 mPa·s
303.15 K, x1 = 0.8	0.774 ± 0.021 mPa·s
308.15 K, x1 = 0.0534	0.5535 ± 0.0073 mPa·s
308.15 K, x1 = 0.1063	0.5551 ± 0.0073 mPa·s
308.15 K, x1 = 0.1575	0.5617 ± 0.0072 mPa·s
308.15 K, x1 = 0.2	0.542 ± 0.011 mPa·s and 0.542 ± 0.015 mPa·s
308.15 K, x1 = 0.2079	0.5677 ± 0.0072 mPa·s
308.15 K, x1 = 0.3318	0.5849 ± 0.0071 mPa·s
308.15 K, x1 = 0.4	0.575 ± 0.016 mPa·s
308.15 K, x1 = 0.4118	0.5998 ± 0.0072 mPa·s
308.15 K, x1 = 0.5	0.602 ± 0.012 mPa·s and 0.602 ± 0.016 mPa·s
308.15 K, x1 = 0.5132	0.6282 ± 0.0073 mPa·s
308.15 K, x1 = 0.6132	0.6564 ± 0.0073 mPa·s
308.15 K, x1 = 0.7107	0.7012 ± 0.0076 mPa·s
308.15 K, x1 = 0.8	0.729 ± 0.02 mPa·s
308.15 K, x1 = 0.8085	0.7408 ± 0.0078 mPa·s
308.15 K, x1 = 0.8566	0.7662 ± 0.0079 mPa·s
308.15 K, x1 = 0.9045	0.8033 ± 0.0082 mPa·s
308.15 K, x1 = 0.9524	0.8347 ± 0.0084 mPa·s
318.15 K, x1 = 0.2	0.48 ± 0.013 mPa·s
318.15 K, x1 = 0.4	0.51 ± 0.014 mPa·s
318.15 K, x1 = 0.5	0.533 ± 0.014 mPa·s
318.15 K, x1 = 0.8	0.643 ± 0.017 mPa·s

CCCOC(=O)CC + c1ccccc1
298.15 K, 101.33 kPa
Settings	viscosity [mPa·s]
x1 = 0.1478	0.583 ± 0.01
x1 = 0.2542	0.583 ± 0.01
x1 = 0.3452	0.586 ± 0.01
x1 = 0.4049	0.588 ± 0.01
x1 = 0.616	0.604 ± 0.011
x1 = 0.7421	0.616 ± 0.011
x1 = 0.8096	0.622 ± 0.011
x1 = 0.878	0.63 ± 0.011
x1 = 0.9369	0.635 ± 0.011

CCC(=O)O + c1ccncc1
298.15 K, 101 kPa
Settings	viscosity [mPa·s]
x1 = 0.0999	1 ± 0.026
x1 = 0.1959	1.135 ± 0.027
x1 = 0.2826	1.311 ± 0.029
x1 = 0.3927	1.587 ± 0.031
x1 = 0.5016	1.943 ± 0.033
x1 = 0.6401	2.388 ± 0.035
x1 = 0.7118	2.48 ± 0.033
x1 = 0.7972	2.353 ± 0.029
x1 = 0.8994	1.755 ± 0.02

— the CheMixHub viscosity set
